# Assay results as given in the NIST ThermoML archive (doi:10.1021/je900596d).
# ± gives the expanded uncertainty stated by the source.
# Conditions: for vapor or sublimation pressure: Liquid, Closed cell (Static) method; for mass density: 263.41 K, Fluid (supercritical or subcritical phases), Vibrating tube method
smiles,measurement,setting,value
FC(F)=C(F)C(F)(F)F [hexafluoropropene],vapor or sublimation pressure,253.26 K,149.7 ± 1.1 kPa
same,vapor or sublimation pressure,258.26 K,184.1 ± 1.1 kPa
same,vapor or sublimation pressure,263.16 K,224.5 ± 1.1 kPa
same,mass density,1.9 kPa,0.11 ± 0.03 kg/m3
same,mass density,2.4 kPa,0.12 ± 0.03 kg/m3
same,mass density,2.9 kPa,0.15 ± 0.03 kg/m3
same,mass density,3.5 kPa,0.21 ± 0.03 kg/m3
same,mass density,4.3 kPa,0.25 ± 0.03 kg/m3
same,mass density,5 kPa,0.26 ± 0.03 kg/m3
same,mass density,5.7 kPa,0.35 ± 0.03 kg/m3
same,mass density,6.3 kPa,0.39 ± 0.03 kg/m3
same,mass density,7.1 kPa,0.47 ± 0.03 kg/m3
same,mass density,7.8 kPa,0.48 ± 0.03 kg/m3
same,mass density,8.5 kPa,0.55 ± 0.03 kg/m3
same,mass density,9.3 kPa,0.61 ± 0.03 kg/m3
same,mass density,10 kPa,0.66 ± 0.03 kg/m3
same,mass density,10.7 kPa,0.71 ± 0.03 kg/m3
same,mass density,11.4 kPa,0.79 ± 0.03 kg/m3
same,mass density,12.1 kPa,0.8 ± 0.03 kg/m3
same,mass density,12.9 kPa,0.87 ± 0.03 kg/m3
same,mass density,13.6 kPa,0.9 ± 0.03 kg/m3
same,mass density,14.4 kPa,0.96 ± 0.03 kg/m3
same,mass density,15 kPa,1 ± 0.03 kg/m3
same,mass density,15.8 kPa,1.02 ± 0.03 kg/m3
same,mass density,16.5 kPa,1.08 ± 0.03 kg/m3
same,mass density,17.1 kPa,1.17 ± 0.03 kg/m3
same,mass density,17.9 kPa,1.18 ± 0.03 kg/m3
same,mass density,18.6 kPa,1.25 ± 0.03 kg/m3
same,mass density,20 kPa,1.33 ± 0.03 kg/m3
same,mass density,21.5 kPa,1.4 ± 0.03 kg/m3
same,mass density,22.9 kPa,1.53 ± 0.03 kg/m3
same,mass density,24.3 kPa,1.63 ± 0.03 kg/m3
same,mass density,25.8 kPa,1.75 ± 0.03 kg/m3
same,mass density,27.2 kPa,1.83 ± 0.03 kg/m3
same,mass density,28.6 kPa,1.89 ± 0.03 kg/m3
same,mass density,30 kPa,2.05 ± 0.03 kg/m3
same,mass density,31.4 kPa,2.13 ± 0.03 kg/m3
same,mass density,32.8 kPa,2.25 ± 0.03 kg/m3
same,mass density,34.2 kPa,2.33 ± 0.03 kg/m3
same,mass density,35.5 kPa,2.43 ± 0.03 kg/m3
same,mass density,36.3 kPa,2.5 ± 0.03 kg/m3
same,mass density,37.7 kPa,2.61 ± 0.03 kg/m3
same,mass density,39 kPa,2.7 ± 0.03 kg/m3
same,mass density,40.5 kPa,2.77 ± 0.03 kg/m3
same,mass density,41.9 kPa,2.87 ± 0.03 kg/m3
same,mass density,43.2 kPa,2.95 ± 0.03 kg/m3
same,mass density,44.5 kPa,3.08 ± 0.03 kg/m3
same,mass density,45.3 kPa,3.09 ± 0.03 kg/m3
same,mass density,46.6 kPa,3.21 ± 0.03 kg/m3
same,mass density,48 kPa,3.31 ± 0.03 kg/m3
same,mass density,49.4 kPa,3.4 ± 0.03 kg/m3
same,mass density,50.7 kPa,3.48 ± 0.03 kg/m3
same,mass density,52.1 kPa,3.59 ± 0.03 kg/m3
same,mass density,53.4 kPa,3.66 ± 0.03 kg/m3
same,mass density,54.7 kPa,3.8 ± 0.03 kg/m3
same,mass density,56.1 kPa,3.85 ± 0.03 kg/m3
same,mass density,57.5 kPa,3.97 ± 0.03 kg/m3
same,mass density,58.8 kPa,4.06 ± 0.03 kg/m3
same,mass density,60.1 kPa,4.18 ± 0.03 kg/m3
same,mass density,61.4 kPa,4.28 ± 0.03 kg/m3
same,mass density,62.8 kPa,4.33 ± 0.03 kg/m3
same,mass density,64 kPa,4.44 ± 0.03 kg/m3
same,mass density,65.4 kPa,4.56 ± 0.03 kg/m3
same,mass density,66.7 kPa,4.62 ± 0.03 kg/m3
same,mass density,68 kPa,4.73 ± 0.03 kg/m3
same,mass density,69.3 kPa,4.82 ± 0.03 kg/m3
same,mass density,70.5 kPa,4.89 ± 0.03 kg/m3
same,mass density,71.3 kPa,4.97 ± 0.03 kg/m3
same,mass density,72.5 kPa,5.04 ± 0.03 kg/m3
same,mass density,73.9 kPa,5.17 ± 0.03 kg/m3
same,mass density,75.2 kPa,5.2 ± 0.03 kg/m3
same,mass density,76.4 kPa,5.28 ± 0.03 kg/m3
same,mass density,77.7 kPa,5.44 ± 0.03 kg/m3
same,mass density,79 kPa,5.49 ± 0.03 kg/m3
same,mass density,80.3 kPa,5.61 ± 0.03 kg/m3
same,mass density,81.6 kPa,5.72 ± 0.03 kg/m3
same,mass density,82.7 kPa,5.81 ± 0.03 kg/m3
same,mass density,83.5 kPa,5.85 ± 0.03 kg/m3
same,mass density,84.7 kPa,5.95 ± 0.03 kg/m3
same,mass density,86 kPa,6 ± 0.03 kg/m3
same,mass density,87.2 kPa,6.11 ± 0.03 kg/m3
same,mass density,88.4 kPa,6.26 ± 0.03 kg/m3
same,mass density,89.8 kPa,6.31 ± 0.03 kg/m3
same,mass density,91 kPa,6.41 ± 0.03 kg/m3
same,mass density,92.3 kPa,6.52 ± 0.03 kg/m3
same,mass density,93.5 kPa,6.56 ± 0.03 kg/m3
same,mass density,94.6 kPa,6.62 ± 0.03 kg/m3
same,mass density,96 kPa,6.75 ± 0.03 kg/m3
same,mass density,97.3 kPa,6.84 ± 0.03 kg/m3
same,mass density,98.5 kPa,6.94 ± 0.03 kg/m3
same,mass density,99.7 kPa,7.02 ± 0.03 kg/m3
same,mass density,100.4 kPa,7.07 ± 0.03 kg/m3
same,mass density,101.6 kPa,7.14 ± 0.03 kg/m3
same,mass density,102.8 kPa,7.21 ± 0.03 kg/m3
same,mass density,104.5 kPa,7.41 ± 0.03 kg/m3
same,mass density,105.8 kPa,7.51 ± 0.03 kg/m3
same,mass density,107 kPa,7.55 ± 0.03 kg/m3
same,mass density,108.2 kPa,7.68 ± 0.03 kg/m3
same,mass density,109.5 kPa,7.75 ± 0.03 kg/m3
same,mass density,110.7 kPa,7.85 ± 0.03 kg/m3
same,mass density,112.4 kPa,7.99 ± 0.03 kg/m3
same,mass density,114.2 kPa,8.06 ± 0.03 kg/m3
same,mass density,115.5 kPa,8.22 ± 0.03 kg/m3
same,mass density,116.7 kPa,8.3 ± 0.04 kg/m3
same,mass density,117.9 kPa,8.33 ± 0.04 kg/m3
same,mass density,119.6 kPa,8.49 ± 0.04 kg/m3
same,mass density,120.8 kPa,8.59 ± 0.04 kg/m3
same,mass density,122 kPa,8.7 ± 0.04 kg/m3
same,mass density,123.2 kPa,8.78 ± 0.04 kg/m3
same,mass density,124.4 kPa,8.88 ± 0.04 kg/m3
same,mass density,126 kPa,8.99 ± 0.04 kg/m3
same,mass density,127.2 kPa,9.05 ± 0.04 kg/m3
same,mass density,128.4 kPa,9.16 ± 0.04 kg/m3
same,mass density,130.2 kPa,9.28 ± 0.04 kg/m3
same,mass density,131.8 kPa,9.44 ± 0.04 kg/m3
same,mass density,133 kPa,9.5 ± 0.04 kg/m3
same,mass density,134.7 kPa,9.61 ± 0.04 kg/m3
same,mass density,136.4 kPa,9.79 ± 0.04 kg/m3
same,mass density,138.1 kPa,9.87 ± 0.04 kg/m3
same,mass density,139.8 kPa,10.02 ± 0.04 kg/m3
same,mass density,141.5 kPa,10.14 ± 0.04 kg/m3
same,mass density,143.2 kPa,10.31 ± 0.04 kg/m3
same,mass density,144.8 kPa,10.44 ± 0.04 kg/m3
same,mass density,146.5 kPa,10.54 ± 0.04 kg/m3
same,mass density,148.1 kPa,10.66 ± 0.04 kg/m3
same,mass density,149.8 kPa,10.8 ± 0.04 kg/m3
same,mass density,151.4 kPa,10.89 ± 0.04 kg/m3
same,mass density,153 kPa,11.03 ± 0.04 kg/m3
same,mass density,154.7 kPa,11.17 ± 0.04 kg/m3
same,mass density,156.3 kPa,11.29 ± 0.04 kg/m3
same,mass density,157.9 kPa,11.41 ± 0.04 kg/m3
same,mass density,159.6 kPa,11.53 ± 0.04 kg/m3
same,mass density,161.2 kPa,11.7 ± 0.04 kg/m3
